Assay results from ChEMBL document CHEMBL1201862, “PubChem BioAssay data set” (2004).
Calls of active or inactive are those of the source.

Assays:
[1] = target: Peroxisome proliferator-activated receptor gamma/Nuclear receptor coactivator 2 (Homo sapiens, UniProt P37231); assay: (§1) TR-FRET dose response biochemical High Throughput Screening assay for agonists of the steroid receptor coactivator 2 (SRC-2) recruitment by the peroxisome proliferator-activated receptor gamma (PPAR gamma): non-selective agonists. [Related pubchem assays: 1297, 1032 ]; assay type: functional
[2] = target: Peroxisome proliferator-activated receptor gamma/Nuclear receptor coactivator 1 (Homo sapiens, UniProt P37231); assay: as §1, with “1 (SRC-1)” for “2 (SRC-2)”, “assays (depositor defined):AID1300, AID1808, AID504735, AID631]” for “assays: 1297, 1032 ]”; assay type: protein assay
[3] = target: T1, High affinity choline transporter 1 (Homo sapiens, UniProt Q9GZV3); assay: CHT inhibitors, dose response, cell-based, 5-point CRC, membrane potential dye (AID 504840); assay type: functional
T1 sequence (Q9GZV3 whole entry): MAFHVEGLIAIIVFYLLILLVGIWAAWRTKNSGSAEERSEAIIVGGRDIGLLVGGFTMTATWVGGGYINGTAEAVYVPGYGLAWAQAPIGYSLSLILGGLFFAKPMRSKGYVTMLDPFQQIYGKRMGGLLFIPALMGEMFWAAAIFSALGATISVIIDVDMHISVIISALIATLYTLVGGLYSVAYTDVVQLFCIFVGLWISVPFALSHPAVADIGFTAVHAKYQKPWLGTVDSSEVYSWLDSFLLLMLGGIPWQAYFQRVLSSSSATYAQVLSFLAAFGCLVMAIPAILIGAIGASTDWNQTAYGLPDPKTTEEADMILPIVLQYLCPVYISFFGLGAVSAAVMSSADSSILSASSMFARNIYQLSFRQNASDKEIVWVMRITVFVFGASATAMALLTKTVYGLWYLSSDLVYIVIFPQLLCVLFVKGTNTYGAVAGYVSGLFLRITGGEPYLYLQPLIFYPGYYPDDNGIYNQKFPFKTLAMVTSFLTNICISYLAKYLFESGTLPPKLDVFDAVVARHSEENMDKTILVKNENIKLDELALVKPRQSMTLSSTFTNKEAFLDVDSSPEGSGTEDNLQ

[4] = target: Peroxisome proliferator-activated receptor gamma/Nuclear receptor coactivator 3 (Homo sapiens, UniProt P37231); assay: as §1, with “3 (SRC-3)” for “2 (SRC-2)”, “1301 (Confirmation screen.), 1048 (Primary screen.)]” for “1297, 1032 ]”; assay type: functional
[5] = inhibitors of firefly luciferase expression or activity, dose response, H4 neuroglioma cells, luminescence (AID 1990); assay type: functional, cell-based
[6] = inhibitors of SNCA 5'UTR-driven reporter translation, confirmation, H4 neuroglioma cells, luminescence (AID 1988); assay type: functional, cell-based
[7] = Luminescence Cell-Based Dose Retest to Confirm Inhibitors of Cancer Stem Cells. [Related pubchem assays (depositor defined):AID2717, AID2721]; assay type: functional; conditions: Homo sapiens
[8] = Luminescence Cell-Based Dose Response HTS to Identify Inhibitors of 5'UTR Stem-Loop Driven Prion Protein mRNA Translation in H4 Neuroglioblastoma Cells. [Related pubchem assays: 1827 (Project Summary), 1813 (Primary HTS)]; assay type: functional
BJ [9] = assay: cells; assay type: functional, cell-based; conditions: Homo sapiens
BJ [10] = assay: cytotoxicity toward BJ-TERT fibroblasts, dose response, cell-based, RAS-independent, luminescence (AID 1933); assay type: functional; conditions: Homo sapiens
[11] = cytotoxicity in HEK-293T cells, dose response, cytotoxicity control for TCR NF-kB inhibitor project, luminescence, T-cell screen hits (AID 489026); assay type: functional, cell-based;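 note: cells exposed to compound about 14 hours before the viability readout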
[12] = cytotoxicity toward DRD oncogenic fibroblasts, dose response, cell-based, non-viral oncogenic, luminescence (AID 1934); assay type: functional; conditions: Homo sapiens
[13] = cytotoxicity in HMLE control line with eGFP shRNA, dose response, counter-screen for HMLE_sh_ECad selective toxicity project, cell-based, HMLE_sh_eGFP, luminescence (AID 463074); assay type: functional, Homo sapiens;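 note: HMLE human mammary epithelial cells expressing control shRNA against eGFP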
BJ [14] = assay: cytotoxicity toward BJ-TERT-LT-ST fibroblasts, dose response, cell-based, RAS-independent, luminescence (AID 1935); assay type: functional; conditions: Homo sapiens;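 note: BJ fibroblasts immortalized with TERT plus LT and ST oncogenes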
Cytochrome P450 3A4 [15] = target: T2, Cytochrome P450 3A4 (Homo sapiens, UniProt P08684);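 note: CYP3A4 tested as one member of a cytochrome P450 panel screen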
Cytochrome P450 2C9 = Cytochrome P450 2C9 (Homo sapiens, UniProt P11712)
[16] = target: T3, Carboxy-terminal domain RNA polymerase II polypeptide A small phosphatase 1 (Homo sapiens, UniProt Q9GZU7); assay: inhibitors of CTDSP1, concentration-response testing, biochemical assay, absorbance-based, actives from ultra-high-throughput screening (AID 540297); assay type: functional
T3 sequence (Q9GZU7 whole entry): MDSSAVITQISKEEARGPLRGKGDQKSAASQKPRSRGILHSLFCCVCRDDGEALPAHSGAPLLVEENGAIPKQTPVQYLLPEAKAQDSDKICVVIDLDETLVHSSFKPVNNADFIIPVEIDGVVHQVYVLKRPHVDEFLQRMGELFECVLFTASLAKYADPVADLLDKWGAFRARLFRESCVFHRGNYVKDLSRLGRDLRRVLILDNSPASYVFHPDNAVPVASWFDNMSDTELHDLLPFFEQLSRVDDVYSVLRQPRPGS

Cytochrome P450 2D6 = Cytochrome P450 2D6 (Homo sapiens, UniProt P10635);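 note: CYP2D6 member of a cytochrome P450 panel assay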
[17] = HEp-2 cell cytotoxicity, dose response, cytotoxicity control for RSV inhibitor project, HTS (AID 2410); assay type: functional; conditions: human respiratory syncytial virus
[18] = miR-122 activators in hepatoma reporter cells, dose response, cell-based, Huh7 psiCHECK-miR122, Renilla luciferase, cherry-picked (AID 651956); assay type: functional;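 note: huh7 hepatoma cells stably carrying a psiCHECK-2 miR-122 sensor plasmid; renilla luciferase signal reporting endogenous miR-122 activity after 48 h compound exposure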
Cytochrome P450 3A4 [19] = target: T2, Cytochrome P450 3A4; remark: listed apart in the source
Cytochrome P450 1A2 = target: T4, Cytochrome P450 1A2 (Homo sapiens, UniProt P05177);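 note: PubChem cytochrome P450 panel assay, CYP1A2 panel member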
T4 sequence (P05177 whole entry): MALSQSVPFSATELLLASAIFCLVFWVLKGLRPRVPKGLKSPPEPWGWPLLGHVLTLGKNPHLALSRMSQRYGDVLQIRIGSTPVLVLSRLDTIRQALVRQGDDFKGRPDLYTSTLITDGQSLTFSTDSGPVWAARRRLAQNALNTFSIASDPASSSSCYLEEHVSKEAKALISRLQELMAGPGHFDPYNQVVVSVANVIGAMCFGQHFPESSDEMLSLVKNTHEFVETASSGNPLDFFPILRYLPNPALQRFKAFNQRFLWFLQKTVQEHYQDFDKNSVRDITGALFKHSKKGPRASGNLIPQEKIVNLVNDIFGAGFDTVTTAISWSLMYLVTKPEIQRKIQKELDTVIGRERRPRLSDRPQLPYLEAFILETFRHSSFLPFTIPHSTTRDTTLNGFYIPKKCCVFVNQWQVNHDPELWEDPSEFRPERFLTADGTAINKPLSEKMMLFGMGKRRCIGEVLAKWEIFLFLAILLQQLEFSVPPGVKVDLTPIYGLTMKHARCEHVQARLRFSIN

Cytochrome P450 2C19 = Cytochrome P450 2C19 (Homo sapiens, UniProt P33261); assay: Cytochrome panel assay with activity outcomes. Panel member name: p450-cyp2c19 Compounds with AC50 equal or less than 10 uM are considered active; assay type: functional
HEK293 [20] = assay: cells; assay type: functional, cell-based; conditions: Homo sapiens
HEK293 [21] = assay: NOD1 signaling inhibitors, primary screen, cell-based, luminescence, uHTS (AID 1578); assay type: functional; conditions: Homo sapiens
HEK293 [22] = assay: cells; assay type: functional, cell-based; conditions: Homo sapiens; remark: listed apart in the source
HEK293 [23] = assay: NOD2 signaling inhibitors in MDP-stimulated cells, cell-based, uHTS, luminescence (AID 2001); assay type: functional; conditions: Homo sapiens
[24] = target: T5, Heat shock factor protein 1 (Mus musculus, UniProt P38532); assay: HSF1 potentiators in luciferase reporter cells, confirmation, cell-based, NIH3T3, luminescence, dose retest (AID 435004); assay type: functional;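 note: stress induced by proteasome inhibitor MG132 added 30 min after compound; luciferase reporter driven by HSF1 response element in NIH3T3 cells; actives raise luminescence as potentiators of the MG132 stress response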
T5 sequence (P38532 whole entry): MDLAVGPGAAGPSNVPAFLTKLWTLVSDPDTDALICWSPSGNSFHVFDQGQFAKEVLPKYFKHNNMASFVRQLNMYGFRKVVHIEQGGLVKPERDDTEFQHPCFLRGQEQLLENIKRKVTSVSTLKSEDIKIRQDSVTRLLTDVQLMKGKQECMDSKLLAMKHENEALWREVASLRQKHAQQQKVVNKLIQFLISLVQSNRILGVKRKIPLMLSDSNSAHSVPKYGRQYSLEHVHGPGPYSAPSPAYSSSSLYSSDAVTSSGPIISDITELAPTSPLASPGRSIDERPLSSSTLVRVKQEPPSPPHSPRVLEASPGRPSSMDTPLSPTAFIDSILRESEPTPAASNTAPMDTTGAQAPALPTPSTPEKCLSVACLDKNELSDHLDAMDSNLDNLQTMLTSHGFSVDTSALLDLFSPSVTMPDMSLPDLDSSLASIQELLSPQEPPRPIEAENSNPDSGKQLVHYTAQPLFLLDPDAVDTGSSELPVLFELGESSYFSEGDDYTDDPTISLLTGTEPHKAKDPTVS

[25] = Luminescence Cell-Based Dose Response HTS to Identify Activators of Luciferase Translation or Activity in H4 […] Cells. [Related pubchem assays: 1829 (Project Summary), 1814 (Primary HTS)]; assay type: functional
[26] = Luminescence Cell-Based Dose Confirmation HTS to Identify Activators of 5'UTR Stem-Loop Driven Alpha-Synuclein mRNA Translation in H4 Neuroglioblastoma Cells. [Related pubchem assays: 1829 (Project Summary), 1814 (Primary HTS)]; assay type: functional
H4 = assay: Luminescence Cell-Based Dose Response HTS to Identify Activators of 5'UTR Stem-Loop Driven Prion Protein mRNA Translation in H4 Neuroglioblastoma Cells. [Related pubchem assays: 1829 (Project Summary), 1814 (Primary HTS)]; assay type: functional; conditions: Homo sapiens

Sequence of Cytochrome P450 2D6 (P10635 whole entry): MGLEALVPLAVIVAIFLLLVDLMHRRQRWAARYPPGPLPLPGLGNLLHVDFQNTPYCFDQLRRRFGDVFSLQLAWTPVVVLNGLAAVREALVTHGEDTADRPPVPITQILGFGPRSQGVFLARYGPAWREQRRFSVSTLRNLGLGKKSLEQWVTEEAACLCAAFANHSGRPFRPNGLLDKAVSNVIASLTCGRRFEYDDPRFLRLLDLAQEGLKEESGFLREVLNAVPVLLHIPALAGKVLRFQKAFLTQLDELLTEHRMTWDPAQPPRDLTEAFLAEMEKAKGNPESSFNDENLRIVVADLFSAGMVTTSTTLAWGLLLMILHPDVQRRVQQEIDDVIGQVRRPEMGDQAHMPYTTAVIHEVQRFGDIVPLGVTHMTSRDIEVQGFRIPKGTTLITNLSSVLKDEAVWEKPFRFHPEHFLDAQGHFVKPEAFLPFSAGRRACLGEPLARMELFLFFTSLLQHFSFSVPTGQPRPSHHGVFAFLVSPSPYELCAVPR
T2 sequence (P08684 whole entry): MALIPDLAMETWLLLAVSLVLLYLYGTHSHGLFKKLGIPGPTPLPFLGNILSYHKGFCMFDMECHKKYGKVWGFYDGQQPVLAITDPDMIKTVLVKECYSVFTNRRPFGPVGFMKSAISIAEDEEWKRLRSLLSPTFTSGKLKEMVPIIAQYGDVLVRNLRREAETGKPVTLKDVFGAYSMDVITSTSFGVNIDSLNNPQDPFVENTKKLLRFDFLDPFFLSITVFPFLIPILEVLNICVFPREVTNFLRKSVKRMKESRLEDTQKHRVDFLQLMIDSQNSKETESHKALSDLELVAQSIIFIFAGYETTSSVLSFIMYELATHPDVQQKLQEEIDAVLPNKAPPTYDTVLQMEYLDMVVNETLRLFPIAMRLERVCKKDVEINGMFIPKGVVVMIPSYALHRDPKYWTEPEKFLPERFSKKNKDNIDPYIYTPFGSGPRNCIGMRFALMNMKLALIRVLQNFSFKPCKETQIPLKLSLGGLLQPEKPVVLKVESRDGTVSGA
Sequence of Cytochrome P450 2C9 (P11712 whole entry, the tested form may be a part): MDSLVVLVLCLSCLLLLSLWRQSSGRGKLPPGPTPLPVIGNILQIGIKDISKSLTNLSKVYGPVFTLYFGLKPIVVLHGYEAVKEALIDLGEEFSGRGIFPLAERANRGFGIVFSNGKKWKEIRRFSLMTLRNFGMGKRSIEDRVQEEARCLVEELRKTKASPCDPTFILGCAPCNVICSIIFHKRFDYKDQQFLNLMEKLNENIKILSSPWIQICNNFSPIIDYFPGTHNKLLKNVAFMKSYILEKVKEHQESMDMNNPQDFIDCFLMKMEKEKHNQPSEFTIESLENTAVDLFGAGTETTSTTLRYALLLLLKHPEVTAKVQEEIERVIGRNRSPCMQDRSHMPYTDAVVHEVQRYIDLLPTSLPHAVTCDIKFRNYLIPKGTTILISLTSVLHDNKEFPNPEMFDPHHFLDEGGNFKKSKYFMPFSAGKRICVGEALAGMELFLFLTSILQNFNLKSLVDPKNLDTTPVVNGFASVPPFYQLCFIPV
Sequence of Cytochrome P450 2C19 (P33261 whole entry): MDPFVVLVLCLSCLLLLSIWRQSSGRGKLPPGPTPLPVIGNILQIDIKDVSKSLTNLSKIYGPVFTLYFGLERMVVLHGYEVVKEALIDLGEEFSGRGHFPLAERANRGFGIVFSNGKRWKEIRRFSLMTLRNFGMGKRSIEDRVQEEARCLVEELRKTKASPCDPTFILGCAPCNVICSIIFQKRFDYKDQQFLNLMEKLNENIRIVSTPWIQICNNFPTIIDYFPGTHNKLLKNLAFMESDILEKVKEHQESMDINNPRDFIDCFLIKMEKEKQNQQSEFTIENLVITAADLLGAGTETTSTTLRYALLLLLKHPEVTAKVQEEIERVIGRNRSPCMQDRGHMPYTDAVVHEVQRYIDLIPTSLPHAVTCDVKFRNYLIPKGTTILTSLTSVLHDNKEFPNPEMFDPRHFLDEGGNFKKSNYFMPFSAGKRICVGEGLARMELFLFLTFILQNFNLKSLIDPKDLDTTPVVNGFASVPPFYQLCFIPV
Sequence of Peroxisome proliferator-activated receptor gamma/Nuclear receptor coactivator 3 (P37231 whole entry): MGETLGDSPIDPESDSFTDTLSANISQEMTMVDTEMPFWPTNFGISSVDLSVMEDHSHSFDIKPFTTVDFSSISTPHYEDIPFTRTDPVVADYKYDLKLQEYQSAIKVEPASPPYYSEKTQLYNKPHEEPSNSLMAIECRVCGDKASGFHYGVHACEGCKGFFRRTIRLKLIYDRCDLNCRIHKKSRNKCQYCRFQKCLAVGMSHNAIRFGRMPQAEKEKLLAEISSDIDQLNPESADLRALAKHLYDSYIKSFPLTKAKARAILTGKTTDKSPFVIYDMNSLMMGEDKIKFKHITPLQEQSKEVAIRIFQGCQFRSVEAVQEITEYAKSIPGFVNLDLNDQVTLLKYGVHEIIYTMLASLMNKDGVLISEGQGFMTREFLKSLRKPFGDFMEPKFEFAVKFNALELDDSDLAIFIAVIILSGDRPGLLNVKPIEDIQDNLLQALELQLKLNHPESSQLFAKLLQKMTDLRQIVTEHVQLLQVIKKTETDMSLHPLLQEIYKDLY
Sequence of Peroxisome proliferator-activated receptor gamma/Nuclear receptor coactivator 3 (Q9Y6Q9 whole entry, further chain): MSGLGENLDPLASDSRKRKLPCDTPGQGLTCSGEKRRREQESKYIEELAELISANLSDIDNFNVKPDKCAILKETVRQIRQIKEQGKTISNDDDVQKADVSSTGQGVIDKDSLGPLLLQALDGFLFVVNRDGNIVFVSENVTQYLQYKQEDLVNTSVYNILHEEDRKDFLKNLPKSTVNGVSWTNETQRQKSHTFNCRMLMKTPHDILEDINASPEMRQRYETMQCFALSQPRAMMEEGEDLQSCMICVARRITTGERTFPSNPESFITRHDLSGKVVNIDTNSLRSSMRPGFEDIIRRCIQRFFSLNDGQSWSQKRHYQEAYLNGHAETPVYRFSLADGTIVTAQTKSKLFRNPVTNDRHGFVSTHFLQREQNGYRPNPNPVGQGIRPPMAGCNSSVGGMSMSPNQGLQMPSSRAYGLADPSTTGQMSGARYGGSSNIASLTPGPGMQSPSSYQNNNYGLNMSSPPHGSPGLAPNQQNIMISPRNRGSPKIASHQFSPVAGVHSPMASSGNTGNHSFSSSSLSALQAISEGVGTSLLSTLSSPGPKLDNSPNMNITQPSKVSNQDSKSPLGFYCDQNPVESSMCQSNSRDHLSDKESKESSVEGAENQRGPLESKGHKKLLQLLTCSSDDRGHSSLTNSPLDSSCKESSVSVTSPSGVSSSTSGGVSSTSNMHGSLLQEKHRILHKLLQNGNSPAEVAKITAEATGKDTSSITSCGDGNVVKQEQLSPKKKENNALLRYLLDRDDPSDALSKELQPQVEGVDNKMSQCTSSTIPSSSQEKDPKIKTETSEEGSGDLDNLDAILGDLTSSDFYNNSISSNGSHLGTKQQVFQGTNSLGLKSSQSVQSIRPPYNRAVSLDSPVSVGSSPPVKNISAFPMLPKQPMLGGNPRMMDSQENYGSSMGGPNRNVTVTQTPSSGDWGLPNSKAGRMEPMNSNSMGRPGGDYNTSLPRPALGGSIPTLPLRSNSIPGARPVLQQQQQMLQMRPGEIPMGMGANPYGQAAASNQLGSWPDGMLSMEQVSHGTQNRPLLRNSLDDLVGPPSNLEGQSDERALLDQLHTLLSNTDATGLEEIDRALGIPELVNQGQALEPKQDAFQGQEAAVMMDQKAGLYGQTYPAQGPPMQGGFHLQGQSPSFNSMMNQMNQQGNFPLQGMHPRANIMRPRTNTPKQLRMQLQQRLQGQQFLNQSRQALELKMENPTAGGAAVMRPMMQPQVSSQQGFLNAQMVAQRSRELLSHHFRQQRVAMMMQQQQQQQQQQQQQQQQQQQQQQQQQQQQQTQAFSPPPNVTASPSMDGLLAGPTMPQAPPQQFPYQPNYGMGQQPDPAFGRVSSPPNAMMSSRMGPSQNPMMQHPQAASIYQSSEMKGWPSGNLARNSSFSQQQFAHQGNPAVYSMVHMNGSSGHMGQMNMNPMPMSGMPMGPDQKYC

In the case of `COc1ccc(-c2nc(-c3cccs3)c(-c3cccs3)[nH]2)cc1O`, the EC50 [1] is reported as 4.79 µM (active), the EC50 [2] is reported as 4.8 µM (active) and the IC50 [3] is reported as 20 µM (active). For the same compound, the EC50 [4] was 79.6 µM (not active).
With `Cc1ccc(NS(=O)(=O)c2ccc(-c3cnc(C4CC4)o3)cc2)c(C)c1` the EC50 [5] was 4.97 µM (inconclusive), the EC50 [6] was 0.502 µM (active) and the AC50 [7] was < 0.16 µM (active). For the same compound, the EC50 [8] was 3.3 µM (active), the EC50 (BJ [9]) was 0.985 µM (active) and the EC50 (BJ [10]) was 1.2 µM (active). The IC50 [11] was 51.2 µM (inactive), the EC50 [12] was 18.9 µM (inconclusive) and the AC50 [13] was 5.23 µM (inconclusive). For the same compound, the EC50 (BJ [14]) was 0.847 µM (inconclusive).
For `COc1ccc(CCNc2cc(C)nc3c(-c4ccc(Cl)cc4)cnn23)cc1OC`, the AC50 [7] was 4.77 µM (active) and the AC50 [13] was 24.1 µM (active).
With `O=C(NNC(=O)c1cc2cc3ccccc3nc2s1)c1cccc(C(F)(F)F)c1` the AC50 (Cytochrome P450 3A4 [15]) was 1.26 µM (inconclusive), the AC50 (Cytochrome P450 2C9) was “inconclusive” and the IC50 [16] was 5.86 µM (active).
For `O=[As](O)(O)c1ccc(NCc2ccccc2)cc1`, the AC50 (Cytochrome P450 2D6) was “inconclusive”.
For `COc1ccc(-c2c(C)nn3c(N)c(-c4ccccc4)cnc23)cc1OC`, the AC50 [7] was 11.9 µM (active), the CC50 [17] was 43.3 µM (active) and the AC50 [18] was 6.96 µM (active). For the same compound, the AC50 [13] was 34.8 µM (active).
With `CN(C)Cc1c[nH]c2ncnc(O)c12` the AC50 (Cytochrome P450 2D6) was “inconclusive”.
In the case of `Cc1noc(C)c1-c1cc(NC2CCNCC2)ncn1`, the AC50 (Cytochrome P450 3A4 [19]) is reported as “inconclusive”, the AC50 (Cytochrome P450 1A2) is reported as 0.126 µM (inconclusive) and the AC50 (Cytochrome P450 2C19) is reported as “inconclusive”. For the same compound, the AC50 (Cytochrome P450 2C9) was “inconclusive”.
For `COc1ccc2c(=O)c(-c3ccccc3C)c(C)oc2c1`, the AC50 (Cytochrome P450 3A4 [19]) was “inconclusive”, the AC50 (Cytochrome P450 1A2) was 31.6 µM (inconclusive) and the AC50 (Cytochrome P450 2D6) was “inconclusive”.
With `CC(=O)NCCNc1nc(-c2ccccc2C)nc2ccccc12` the AC50 (Cytochrome P450 2C9) was “inconclusive”.
With `Cc1ccc(C)c(-n2nc3c4c(ccc3c2O)C(=O)c2ccccc2C4=O)c1` the IC50 (HEK293 [20]) was > 20 µM (inactive), the EC50 (HEK293 [21]) was 11.1 µM (active) and the IC50 (HEK293 [22]) was > 20 µM (inactive). For the same compound, the IC50 (HEK293 [23]) was 18 µM (inactive).
With `CCn1c(SCC(=O)N2CCN(c3ccc(F)cc3)CC2)nc2ccccc2c1=O` the AC50 [7] was 20.1 µM (active) and the AC50 [13] was 58.9 µM (active).
With `CCOC(=O)N1CCC(NS(=O)(=O)c2ccc3c(c2)C(C)(C)C(=O)N3C)CC1` the EC50 [24] was > 260 µM (inactive), the AC50 (Cytochrome P450 3A4 [15]) was 15.8 µM (inconclusive) and the AC50 (Cytochrome P450 2C19; read-out: AC50) was 11.2 µM (inconclusive). The AC50 (Cytochrome P450 2C9) was “inconclusive”.
In the case of `Cc1ccc(C(=O)c2cnc3cc4c(cc3c2S(=O)(=O)c2ccccc2)OCCO4)cc1`, the IC50 (HEK293 [20]) is reported as 14.7 µM (active), the EC50 (HEK293 [21]) is reported as > 20 µM (inactive) and the IC50 (HEK293 [22]) is reported as > 20 µM (inactive). For the same compound, the EC50 [25] was 9.9 µM (active), the IC50 (HEK293 [23]) was 12.9 µM (inactive) and the EC50 [26] was 6.76 µM (active). For the same compound, the EC50 (H4) was 7.93 µM (active).
